Test results taken from the supplement of paper PMC10307832.

What was measured:
Assay in all cases: relative viability (nuclei count vs DMSO), 5 days (fraction); higher = more cells survive
[1] = system: H3255
Procedure, shortened: (§1)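 Five library-drug doses in √10 steps were combined with a fixed anchor-drug dose, or a single drug was given alone, by pin tool to lung cancer cell lines in 1536-well plates the day after seeding. Nuclei were stained and counted after 5 days. Relative viability is the nuclei count in treated wells over that in vehicle wells, taken as the median of duplicate plates.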

[2] = system: LCLC-103H
Procedure, shortened: as §1

[3] = system: LXF-289
Procedure, shortened: as §1

[4] = system: NCI-H1437
Procedure, shortened: as §1

[5] = system: UMC-11
Procedure, shortened: as §1

[6] = system: PC-3 [JPC-3]
Procedure, shortened: as §1

[7] = system: HCC-15
Procedure, shortened: as §1

[8] = system: NCI-H2228
Procedure, shortened: as §1

[9] = system: NCI-H661
Procedure, shortened: as §1

[10] = system: ABC-1
Procedure, shortened: as §1

[11] = system: NCI-H2009
Procedure, shortened: as §1

[12] = system: SK-MES-1
Procedure, shortened: as §1

[13] = system: NCI-H23
Procedure, shortened: as §1

[14] = system: LC-2-ad
Procedure, shortened: as §1

[15] = system: HCC-827
Procedure, shortened: as §1

[16] = system: NCI-H2342
Procedure, shortened: as §1

[17] = system: NCI-H2085
Procedure, shortened: as §1

[18] = system: PC-14
Procedure, shortened: as §1

[19] = system: NCI-H1666
Procedure, shortened: as §1

[20] = system: NCI-H1975
Procedure, shortened: as §1

[21] = system: NCI-H2087
Procedure, shortened: as §1

[22] = system: COR-L23
Procedure, shortened: as §1

## CN1CCN(CCOc2cc(OC3CCOCC3)c3c(Nc4c(Cl)ccc5c4OCO5)ncnc3c2)CC1 [Saracatinib] + CCNC(=O)c1noc(-c2cc(C(C)C)c(O)cc2O)c1-c1ccc(CN2CCOCC2)cc1 [Luminespib] (partner 0.01 µM)
[1]; first compound 0.02 µM
  relative viability: 0.91
[1]; first compound 0.2 µM
  relative viability: 0.914
[1]; first compound 0.6325 µM
  relative viability: 0.745
[1]; first compound 2 µM
  relative viability: 0.477
[2]; first compound 0.02 µM
  relative viability: 1.02
[2]; first compound 0.2 µM
  relative viability: 0.902
[2]; first compound 0.6325 µM
  relative viability: 0.975
[2]; first compound 2 µM
  relative viability: 0.9
[3]; first compound 0.02 µM
  relative viability: 0.619
[3]; first compound 0.2 µM
  relative viability: 0.633
[3]; first compound 0.6325 µM
  relative viability: 0.796
[3]; first compound 2 µM
  relative viability: 0.585
[4]; first compound 0.02 µM
  relative viability: 1.13
[4]; first compound 0.2 µM
  relative viability: 1.13
[4]; first compound 0.6325 µM
  relative viability: 1.17
[4]; first compound 2 µM
  relative viability: 1.14
[5]; first compound 0.02 µM
  relative viability: 0.96
[5]; first compound 0.6325 µM
  relative viability: 0.863
[5]; first compound 2 µM
  relative viability: 0.624
[6]; first compound 0.02 µM
  relative viability: 0.732
[6]; first compound 0.2 µM
  relative viability: 0.655
[6]; first compound 0.6325 µM
  relative viability: 0.675
[6]; first compound 2 µM
  relative viability: 0.537
[7]; first compound 0.02 µM
  relative viability: 0.343
[7]; first compound 0.2 µM
  relative viability: 0.32
[7]; first compound 0.6325 µM
  relative viability: 0.331
[7]; first compound 2 µM
  relative viability: 0.176
[8]; first compound 0.02 µM
  relative viability: 0.157
[8]; first compound 0.2 µM
  relative viability: 0.167
[8]; first compound 0.6325 µM
  relative viability: 0.0897
[8]; first compound 2 µM
  relative viability: 0.116
[9]; first compound 0.02 µM
  relative viability: 0.948
[9]; first compound 0.2 µM
  relative viability: 0.921
[9]; first compound 0.6325 µM
  relative viability: 0.943
[9]; first compound 2 µM
  relative viability: 0.771
[10]; first compound 0.02 µM
  relative viability: 0.721
[10]; first compound 0.2 µM
  relative viability: 0.43
[10]; first compound 0.6325 µM
  relative viability: 0.599
[10]; first compound 2 µM
  relative viability: 0.766
[11]; first compound 0.02 µM
  relative viability: 0.997
[11]; first compound 0.2 µM
  relative viability: 1.04
[11]; first compound 0.6325 µM
  relative viability: 0.951
[11]; first compound 2 µM
  relative viability: 0.913
[12]; first compound 0.02 µM
  relative viability: 0.627
[12]; first compound 0.2 µM
  relative viability: 0.828
[12]; first compound 0.6325 µM
  relative viability: 0.348
[12]; first compound 2 µM
  relative viability: 0.207
[13]; first compound 0.02 µM
  relative viability: 0.247
[13]; first compound 0.2 µM
  relative viability: 0.193
[13]; first compound 0.6325 µM
  relative viability: 0.196
[13]; first compound 2 µM
  relative viability: 0.219
[14]; first compound 0.02 µM
  relative viability: 0.985
[14]; first compound 0.2 µM
  relative viability: 0.912
[14]; first compound 0.6325 µM
  relative viability: 1.1
[14]; first compound 2 µM
  relative viability: 0.949
[15]; first compound 0.02 µM
  relative viability: 0.709
[15]; first compound 0.2 µM
  relative viability: 0.311
[15]; first compound 0.6325 µM
  relative viability: 0.241
[15]; first compound 2 µM
  relative viability: 0.136
[16]; first compound 0.02 µM
  relative viability: 0.659
[16]; first compound 0.2 µM
  relative viability: 0.698
[16]; first compound 0.6325 µM
  relative viability: 0.758
[16]; first compound 2 µM
  relative viability: 0.519
[17]; first compound 0.02 µM
  relative viability: 0.411
[17]; first compound 0.2 µM
  relative viability: 0.347
[17]; first compound 0.6325 µM
  relative viability: 0.481
[17]; first compound 2 µM
  relative viability: 0.429
[18]; first compound 0.02 µM
  relative viability: 0.175
[18]; first compound 0.2 µM
  relative viability: 0.183
[18]; first compound 0.6325 µM
  relative viability: 0.173
[18]; first compound 2 µM
  relative viability: 0.227
[19]; first compound 0.02 µM
  relative viability: 1.01
[19]; first compound 0.2 µM
  relative viability: 1.09
[19]; first compound 0.6325 µM
  relative viability: 1.4
[19]; first compound 2 µM
  relative viability: 1.15
[20]; first compound 0.02 µM
  relative viability: 0.202
[20]; first compound 0.2 µM
  relative viability: 0.243
[20]; first compound 0.6325 µM
  relative viability: 0.182
[20]; first compound 2 µM
  relative viability: 0.188
[21]; first compound 0.02 µM
  relative viability: 0.143
[21]; first compound 0.2 µM
  relative viability: 0.18
[21]; first compound 0.6325 µM
  relative viability: 0.166
[21]; first compound 2 µM
  relative viability: 0.253
[22]; first compound 0.02 µM
  relative viability: 0.694
[22]; first compound 0.2 µM
  relative viability: 0.605
[22]; first compound 0.6325 µM
  relative viability: 0.575
[22]; first compound 2 µM
  relative viability: 0.558
